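Following 48 hours of exposure in 96-well plates, responses at five concentrations were used to interpolate endpoints linearly. Here, GI50 denotes the concentration required for 50% inhibition of growth.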 Calls of active or inactive are those of the source. No stated cut-off is given here; in the data, active = GI50 up to about 1.1 µM and inactive = higher.

Among the test systems are SF-268; ACHN; MDA-N; Malme-3M; NCI-H226; UACC-62; NCI-H460; OVCAR-3; SR; SK-MEL-5; CAKI-1; NCI-H23; LOX IMVI; MDA-MB-231; HCC 2998; NCI/ADR-RES; SN12C; A498; SW-620; MDA-MB-435.
Common to all, as to experiment: inhibition of tumour cell growth, NCI panel, 48 h

In the case of `COC(=O)c1ccc(CCc2cc(O)c(Br)cc2O)cc1`, the GI50 in the test with SF-268 is 13.5 µM (inactive); in the test with ACHN, 13.2 µM (inactive); in the test on MDA-N, 15.7 µM (inactive); in the test with Malme-3M, 15.7 µM (inactive); with NCI-H226 it was 21.4 µM (inactive); with UACC-62, 14.1 µM (inactive). For the same molecule, the GI50 was 16.8 µM (inactive) in the test with NCI-H460; 8.02 µM (inactive) with OVCAR-3; 3.2 µM (inactive) in the test on SR; 11.5 µM (inactive) in the test on SK-MEL-5; 10.3 µM (inactive) in the test on CAKI-1; 10.4 µM (inactive) with NCI-H23. Further, the GI50 in the test with LOX IMVI was 13.7 µM (inactive); in the test with MDA-MB-231, 15.1 µM (inactive); with HCC 2998 it was 17.7 µM (inactive); in the test with NCI/ADR-RES, 14.3 µM (inactive); with SN12C, 15 µM (inactive); with A498, 22.1 µM (inactive). The GI50 was 15 µM (inactive) in the test with SW-620 and 8.49 µM (inactive) in the test with MDA-MB-435.
Turning to `Cc1cc(O)c2cc3c(O)c(O)ccc3cc2c1`, the GI50 with SF-268 is 1.07 µM (active); with ACHN, 1.77 µM (inactive); with MDA-N, 2.18 µM (inactive); in the test on Malme-3M it was 1.4 µM (inactive); with NCI-H226, 1.23 µM (inactive); in the test on UACC-62, 1.52 µM (inactive). Further, the GI50 in the test with NCI-H460 was 0.524 µM (active); with OVCAR-3 it was 0.46 µM (active); with SR, 0.618 µM (active); with SK-MEL-5 it was 0.243 µM (active); in the test with CAKI-1, 2.08 µM (inactive); with NCI-H23, 1.24 µM (inactive). Further, the GI50 in the test on LOX IMVI is 1.35 µM (inactive); with MDA-MB-231, 1.25 µM (inactive); with HCC 2998, 0.817 µM (active); in the test on NCI/ADR-RES it was 0.438 µM (active); with SN12C it was 2.46 µM (inactive); in the test with A498, 3.12 µM (inactive). For the same molecule, the GI50 in the test on SW-620 was 0.53 µM (active); in the test on MDA-MB-435, 3.63 µM (inactive).
On to `CC(C)(C)N1CC1CNC(=O)C(=O)NCC1CN1C(C)(C)C` (centres undefined), for which the GI50 is 3.03 µM (inactive) in the test on SF-268; 1.29 µM (inactive) in the test on ACHN; 25.8 µM (inactive) with MDA-N; 3.4 µM (inactive) in the test with Malme-3M; 7.83 µM (inactive) in the test on NCI-H226; 2.18 µM (inactive) in the test with UACC-62. In addition, the GI50 in the test on NCI-H460 is 1.53 µM (inactive); in the test on OVCAR-3, 4.62 µM (inactive); in the test on SR, 0.601 µM (active); in the test on SK-MEL-5 it was 16.7 µM (inactive); with CAKI-1, 6.31 µM (inactive); in the test on NCI-H23, 2.74 µM (inactive). For the same molecule, the GI50 was 8.24 µM (inactive) in the test on LOX IMVI; 63.4 µM (inactive) in the test on MDA-MB-231; 3.16 µM (inactive) with HCC 2998; 2.55 µM (inactive) with NCI/ADR-RES; 2.33 µM (inactive) in the test with SN12C; 2.68 µM (inactive) in the test with A498. Also, the GI50 is 3.08 µM (inactive) with SW-620 and 38.8 µM (inactive) with MDA-MB-435.
Take `CCCC[C@@H]1CCN2C[C@@H](O)[C@@H](O)[C@@H]2[C@H]1O`: the GI50 with SF-268, in the test with ACHN, with MDA-N, with Malme-3M, in the test on NCI-H226 and in the test on UACC-62 was > 100 µM (inactive) throughout. In addition, the GI50 in the test with NCI-H460, in the test with OVCAR-3, with SR, in the test with SK-MEL-5, with CAKI-1 and in the test with NCI-H23 was > 100 µM (inactive) each time. The GI50 with LOX IMVI, with MDA-MB-231, in the test on HCC 2998, with NCI/ADR-RES, in the test with SN12C and in the test on A498 was > 100 µM (inactive) throughout. Besides, the GI50 in the test with SW-620 and in the test with MDA-MB-435 was > 100 µM (inactive) each time.
Regarding `CSc1ccc(/C=C/C(=O)c2nc3ccccc3[nH]2)cc1`, the GI50 with SF-268 is 26.9 µM (inactive); in the test on ACHN, 18.9 µM (inactive); in the test with MDA-N, 7.36 µM (inactive); with Malme-3M, 44.7 µM (inactive); in the test with NCI-H226 it was 13.6 µM (inactive); in the test on UACC-62, 14.2 µM (inactive). Moreover, the GI50 in the test with NCI-H460 was 18.4 µM (inactive); with OVCAR-3 it was 16.6 µM (inactive); in the test on SR, 2.35 µM (inactive); in the test on SK-MEL-5, 21.2 µM (inactive); in the test on CAKI-1, 2.26 µM (inactive); in the test with NCI-H23, 23.6 µM (inactive). Also, the GI50 in the test with LOX IMVI was 14.5 µM (inactive); with MDA-MB-231, 10 µM (inactive); in the test with HCC 2998, 10.7 µM (inactive); in the test on NCI/ADR-RES it was 20.1 µM (inactive); in the test on SN12C it was 29.2 µM (inactive); with A498, 13.6 µM (inactive). The figures for the GI50 in the test with SW-620 and with MDA-MB-435 were 9.29 µM (inactive) and 6.22 µM (inactive), respectively.
For the molecule `CCC(=O)NC(Nc1cccc(F)c1C)(C(F)(F)F)C(F)(F)F`, the GI50 in the test on SF-268, with ACHN, with MDA-N, in the test with Malme-3M, with NCI-H226 and with UACC-62 was > 100 µM (inactive) throughout. For the same molecule, the GI50 with NCI-H460 was > 100 µM (inactive); in the test on OVCAR-3, > 100 µM (inactive); with SR, 75.3 µM (inactive); in the test on SK-MEL-5, > 100 µM (inactive); with CAKI-1, > 100 µM (inactive); in the test on NCI-H23, > 100 µM (inactive). The GI50 in the test on LOX IMVI, in the test with MDA-MB-231, with HCC 2998, with NCI/ADR-RES, with A498 and with SW-620 was > 100 µM (inactive) throughout. Further, the GI50 in the test on MDA-MB-435 was > 100 µM (inactive).
On to `Oc1cc(-c2ccccc2)cn2c1nc1ccccc12`, for which the GI50 was 3.92 µM (inactive) in the test on SF-268; 6.41 µM (inactive) in the test with ACHN; 0.253 µM (active) in the test with MDA-N; 1.41 µM (inactive) in the test on Malme-3M; > 25.4 µM (inactive) with NCI-H226; 0.33 µM (active) in the test with UACC-62. Further, the GI50 with NCI-H460 was 0.76 µM (active); in the test on OVCAR-3, 1.22 µM (inactive); with SR it was 3.21 µM (inactive); in the test on SK-MEL-5, 0.476 µM (active); in the test with CAKI-1, 2.91 µM (inactive); in the test on NCI-H23 it was 6.37 µM (inactive). Also, the GI50 is 1.12 µM (active) in the test with LOX IMVI; 0.382 µM (active) with MDA-MB-231; 4.68 µM (inactive) in the test on HCC 2998; 1.21 µM (inactive) in the test on NCI/ADR-RES; 4.06 µM (inactive) with SN12C; 11 µM (inactive) in the test on A498. For the same molecule, the GI50 in the test on SW-620 is 0.544 µM (active); in the test on MDA-MB-435, 0.189 µM (active).
Regarding `O=c1[nH]nc(-c2ccccc2)n1/N=C\c1ccccc1`, the GI50 with SF-268 is 31 µM (inactive); in the test on ACHN, > 100 µM (inactive); with MDA-N, > 100 µM (inactive); with Malme-3M it was > 100 µM (inactive); in the test with NCI-H226 it was > 100 µM (inactive); in the test with UACC-62, > 100 µM (inactive). The GI50 in the test with NCI-H460, in the test with OVCAR-3, in the test on SR, with SK-MEL-5, in the test with CAKI-1 and with NCI-H23 was > 100 µM (inactive) throughout. The GI50 in the test on LOX IMVI, in the test on MDA-MB-231, in the test on HCC 2998, in the test with NCI/ADR-RES, in the test with SN12C and in the test with A498 was > 100 µM (inactive) in each case. In addition, the GI50 in the test with SW-620 and in the test with MDA-MB-435 was > 100 µM (inactive) throughout.
Regarding `Cc1nc2ccc(NC(=S)Nc3ccccc3)cc2c(=O)n1-c1ccccc1`, the GI50 in the test on SF-268, in the test with ACHN, with MDA-N, in the test on Malme-3M, with NCI-H226 and in the test with UACC-62 was > 100 µM (inactive) in each case. In addition, the GI50 in the test on NCI-H460 was 24.2 µM (inactive); with OVCAR-3, > 100 µM (inactive); in the test with SR, > 100 µM (inactive); with SK-MEL-5, 51.3 µM (inactive); with CAKI-1 it was > 100 µM (inactive); in the test with NCI-H23, > 100 µM (inactive). Moreover, the GI50 was > 100 µM (inactive) in the test on LOX IMVI; > 100 µM (inactive) in the test on MDA-MB-231; 66.4 µM (inactive) in the test with HCC 2998; > 100 µM (inactive) in the test with NCI/ADR-RES; > 100 µM (inactive) with SN12C; > 100 µM (inactive) with A498. Also, the results for the GI50 with SW-620 and in the test with MDA-MB-435 were 76.7 µM (inactive) and > 100 µM (inactive), respectively.
Take `Clc1ccc(-c2nnc(C34CC5CC(CC(C5)C3)C4)o2)cc1`: the GI50 in the test with SF-268, in the test with ACHN, in the test with MDA-N, with Malme-3M, with NCI-H226 and in the test with UACC-62 was > 100 µM (inactive) throughout. Also, the GI50 with NCI-H460, in the test on OVCAR-3, with SR, with SK-MEL-5, in the test on CAKI-1 and in the test on NCI-H23 was > 100 µM (inactive) throughout. Also, the GI50 in the test with LOX IMVI, in the test with MDA-MB-231, with HCC 2998, in the test with NCI/ADR-RES, with SN12C and in the test on A498 was > 100 µM (inactive) throughout. The GI50 in the test on SW-620 and with MDA-MB-435 was > 100 µM (inactive) in each case.

The values are drawn from ChEMBL document CHEMBL1201862, “PubChem BioAssay data set” (2004).
